Assay results published in US20240327463A1, “ANTIBACTERIAL PRODUCTS” (priority 2017, published 2024).
≈ marks a conversion by molar mass, not a printed value. Bridge positions count the residues as written; N and C are the ends. Square brackets hold non-standard residues; d marks the D form. Peptide text beside a SMILES is read from it. dNMeF = CN[C@H](Cc1ccccc1)C(=O)O; Chg = N[C@H](C(=O)O)C1CCCCC1; Nva = CCC[C@H](N)C(=O)O

Test system: MRSA ATCC 33591
Conditions: ATCC 33591
Description: For MIC testing all peptides were dissolved in DMSO (according to the method of L. L. Ling, et al., Nature 2015, 517, 455-459). Bacteria were grown on Mueller Hinton broth (oxoid). All incubations were at 37° C. Dilutions were carried out using Mueller Hinton. 100 μl of autoclaved Mueller Hinton broth was added to wells 2-12 on a 96-well plate. 200 μl of the peptide was added to well one at a concentration of 512 μg/ml. 100 μl of peptide in well one was taken up and pipetted into well two. The mixture was then mixed via pipetting before 100 μl was taken up and pipetted into well three. This process was repeated up to well 11. […] This was repeated three times. The 96-well plates were then incubated for 24 hours. The MIC was determined to be the lowest concentration at which there was no growth visible.

Compound	MIC (MRSA) [µg/mL]	MIC (MRSA*) [µg/mL]
CCC[C@@H]1NC(=O)[C@H](CCCNC(=N)N)NC(=O)[C@H](NC(=O)[C@H](CO)NC(=O)[C@@H](NC(=O)[C@H](NC(=O)[C@@H](CCC(N)=O)NC(=O)[C@H](CCCNC(=N)N)NC(=O)[C@@H](NC(=O)[C@@H](Cc2ccccc2)NC)[C@@H](C)CC)[C@H](C)CC)[C@@H](C)CC)[C@H](C)OC(=O)[C@H]([C@@H](C)CC)NC1=O [Compound 49, Arg3-Arg9-Nva10-teixobactin] (H-[dNMeF]IR[dQ][dI]IS[dT]R[Nva]I; ester 8-C)	0.5 (≈ 0.373 µM)	–
CC[C@@H](C)[C@@H](NC(=O)[C@@H](CCC(N)=O)NC(=O)[C@H](CO)NC(=O)[C@@H](NC(=O)[C@@H](Cc1ccccc1)NC)[C@@H](C)CC)C(=O)N[C@H](C(=O)N[C@@H](CO)C(=O)N[C@H]1C(=O)N[C@@H](CCCNC(=N)N)C(=O)N[C@@H](C2CCCCC2)C(=O)N[C@@H]([C@@H](C)CC)C(=O)O[C@H]1C)[C@@H](C)CC [Compound 39, Arg9-Chg10-teixobactin]	1 (≈ 0.762 µM)	–
CC[C@@H](C)[C@@H](NC(=O)[C@@H](CCCNC(=N)N)NC(=O)[C@H](CCCNC(=N)N)NC(=O)[C@@H](NC(=O)[C@@H](Cc1ccccc1)NC)[C@@H](C)CC)C(=O)N[C@H](C(=O)N[C@@H](CO)C(=O)N[C@H]1C(=O)N[C@@H](C)C(=O)N[C@@H](C2CCCCC2)C(=O)N[C@@H]([C@@H](C)CC)C(=O)O[C@H]1C)[C@@H](C)CC [Compound 40, Arg3-D-Arg4-Chg10-teixobactin] (H-[dNMeF]IR[dR][dI]IS[dT]A[Chg]I; ester 8-C)	1 (≈ 0.755 µM)	–
CC[C@@H](C)[C@@H](NC(=O)[C@@H](CCCNC(=N)N)NC(=O)[C@H](CO)NC(=O)[C@@H](NC(=O)[C@@H](Cc1ccccc1)NC)[C@@H](C)CC)C(=O)N[C@H](C(=O)N[C@@H](CO)C(=O)N[C@H]1C(=O)N[C@@H](C)C(=O)N[C@@H](C2CCCCC2)C(=O)N[C@@H]([C@@H](C)CC)C(=O)O[C@H]1C)[C@@H](C)CC [Compound 38, D-Arg4-Chg10-teixobactin]	0.5 (≈ 0.398 µM)	–
CCC[C@@H]1NC(=O)[C@H](CCCNC(=N)N)NC(=O)[C@H](NC(=O)[C@H](CO)NC(=O)[C@@H](NC(=O)[C@H](NC(=O)[C@@H](CCCNC(=N)N)NC(=O)[C@H](CCCNC(=N)N)NC(=O)[C@@H](NC(=O)[C@@H](Cc2ccccc2)NC)[C@@H](C)CC)[C@H](C)CC)[C@@H](C)CC)[C@H](C)OC(=O)[C@H]([C@@H](C)CC)NC1=O [Compound 51, Arg3-D-Arg4-Arg9-Nva10-teixobactin] (H-[dNMeF]IR[dR][dI]IS[dT]R[Nva]I; ester 8-C)	64 (≈ 46.7 µM)	–
CC[C@@H](C)[C@@H](NC(=O)[C@@H](CCC(N)=O)NC(=O)[C@H](CO)NC(=O)[C@@H](NC(=O)[C@@H](Cc1ccccc1)NC)[C@@H](C)CC)C(=O)N[C@H](C(=O)N[C@@H](CO)C(=O)N[C@H]1C(=O)N[C@@H](C)C(=O)NCC(=O)N[C@@H]([C@@H](C)CC)C(=O)O[C@H]1C)[C@@H](C)CC [Compound 16, Gly10-teixobactin]	–	2 (≈ 1.75 µM)
CC[C@@H](C)[C@@H](NC(=O)[C@@H](CCC(N)=O)NC(=O)[C@H](CO)NC(=O)[C@H](C)NC(=O)[C@@H](Cc1ccccc1)NC)C(=O)N[C@H](C(=O)N[C@@H](CO)C(=O)N[C@H]1C(=O)N[C@@H](C)C(=O)N[C@@H](CCCNC(=N)N)C(=O)N[C@@H]([C@@H](C)CC)C(=O)O[C@H]1C)[C@@H](C)CC [Compound 8] (H-[dNMeF]AS[dQ][dI]IS[dT]ARI; ester 8-C)	–	>128
CC[C@@H](C)[C@@H](NC(=O)[C@@H](CCCNC(=N)N)NC(=O)[C@H](CO)NC(=O)[C@@H](NC(=O)[C@@H](Cc1ccccc1)NC)[C@@H](C)CC)C(=O)N[C@H](C(=O)N[C@@H](CO)C(=O)N[C@H]1C(=O)N[C@@H](C)C(=O)N[C@@H](Cc2ccccc2)C(=O)N[C@@H]([C@@H](C)CC)C(=O)O[C@H]1C)[C@@H](C)CC [Compound 52, D-Arg4-Phe10-teixobactin]	2 (≈ 1.58 µM)	–
CCC[C@@H]1NC(=O)[C@H](C)NC(=O)[C@H](NC(=O)[C@H](CO)NC(=O)[C@@H](NC(=O)[C@H](NC(=O)[C@@H](CCCNC(=N)N)NC(=O)[C@H](CO)NC(=O)[C@@H](NC(=O)[C@@H](Cc2ccccc2)NC)[C@@H](C)CC)[C@H](C)CC)[C@@H](C)CC)[C@H](C)OC(=O)[C@H]([C@@H](C)CC)NC1=O [Compound 46, D-Arg4-Nva10-teixobactin]	0.25 (≈ 0.206 µM)	–
CC[C@@H](C)[C@@H](NC(=O)[C@@H](CCC(N)=O)NC(=O)[C@H](CO)NC(=O)[C@@H](NC(=O)[C@@H](Cc1ccccc1)NC)[C@@H](C)CC)C(=O)N[C@H](C(=O)N[C@@H](CO)C(=O)N[C@H]1C(=O)N[C@@H](C)C(=O)N[C@H](C)C(=O)N[C@@H]([C@@H](C)CC)C(=O)O[C@H]1C)[C@@H](C)CC [Compound 15]	–	32 (≈ 27.6 µM)
CC[C@@H](C)[C@@H](NC(=O)[C@@H](CCC(N)=O)NC(=O)[C@H](CO)NC(=O)[C@@H](NC(=O)[C@@H](Cc1ccccc1)NC)[C@@H](C)CC)C(=O)N[C@H](C(=O)N[C@@H](CO)C(=O)N[C@H]1C(=O)N[C@@H](C)C(=O)N[C@@H](C2CCCCC2)C(=O)N[C@@H]([C@@H](C)CC)C(=O)O[C@H]1C)[C@@H](C)CC [Compound 36, Chg10-teixobactin]	0.25 (≈ 0.204 µM)	–
CC[C@@H](C)[C@@H](NC(=O)[C@@H](CCC(N)=O)NC(=O)[C@H](CCCNC(=N)N)NC(=O)[C@@H](NC(=O)[C@@H](Cc1ccccc1)NC)[C@@H](C)CC)C(=O)N[C@H](C(=O)N[C@@H](CO)C(=O)N[C@H]1C(=O)N[C@@H](CCCNC(=N)N)C(=O)N[C@@H](C2CCCCC2)C(=O)N[C@@H]([C@@H](C)CC)C(=O)O[C@H]1C)[C@@H](C)CC [Compound 41, Arg3-Arg9-Chg10-teixobactin] (H-[dNMeF]IR[dQ][dI]IS[dT]R[Chg]I; ester 8-C)	0.5 (≈ 0.362 µM)	–
CC[C@@H](C)[C@@H](NC(=O)[C@@H](CCCNC(=N)N)NC(=O)[C@H](CO)NC(=O)[C@@H](NC(=O)[C@@H](Cc1ccccc1)NC)[C@@H](C)CC)C(=O)N[C@H](C(=O)N[C@@H](CO)C(=O)N[C@H]1C(=O)N[C@@H](CCCNC(=N)N)C(=O)N[C@@H](C2CCCCC2)C(=O)N[C@@H]([C@@H](C)CC)C(=O)O[C@H]1C)[C@@H](C)CC [Compound 42, D-Arg4-Arg9-Chg10-teixobactin] (H-[dNMeF]IS[dR][dI]IS[dT]R[Chg]I; ester 8-C)	0.5 (≈ 0.373 µM)	–
CC[C@@H](C)[C@@H](NC(=O)[C@@H](C)NC(=O)[C@H](CO)NC(=O)[C@@H](NC(=O)[C@@H](Cc1ccccc1)NC)[C@@H](C)CC)C(=O)N[C@H](C(=O)N[C@@H](CO)C(=O)N[C@H]1C(=O)N[C@@H](C)C(=O)N[C@@H](CCCNC(=N)N)C(=O)N[C@@H]([C@@H](C)CC)C(=O)O[C@H]1C)[C@@H](C)CC [Compound 10] (H-[dNMeF]IS[dA][dI]IS[dT]ARI; ester 8-C)	–	2 to 4
CC[C@@H](C)[C@@H](NC(=O)[C@@H](CCCNC(=N)N)NC(=O)[C@H](CCCNC(=N)N)NC(=O)[C@@H](NC(=O)[C@@H](Cc1ccccc1)NC)[C@@H](C)CC)C(=O)N[C@H](C(=O)N[C@@H](CO)C(=O)N[C@H]1C(=O)N[C@@H](CCCNC(=N)N)C(=O)N[C@@H](C2CCCCC2)C(=O)N[C@@H]([C@@H](C)CC)C(=O)O[C@H]1C)[C@@H](C)CC [Compound 43, Arg3-D-Arg4-Arg9-Chg10-teixobactin] (H-[dNMeF]IR[dR][dI]IS[dT]R[Chg]I; ester 8-C)	64 (≈ 45.4 µM)	–
